Measured values: article PMC5520492, “Inhibition of DNA2 nuclease as a therapeutic strategy targeting replication stress in cancer cells” (Oncogenesis, 2017)

Experiments:
[1] = biological target: T1, yDna2 (Saccharomyces cerevisiae, UniProt P38859); assay: High-throughput fluorescence nuclease assay with yDna2 (triply labeled (dT)30 ssDNA); assay type: biochemical, yeast; settings: yeast Dna2 0.09 nM; substrate 0.1 μM; Figure 3c; read-out: IC50 (yeast Dna2), dose-response in vitro
T1 construct: made in house
Method: The screen entailed the use of oligonucleotide (dT)30 having a reporter fluorescent moiety, 6-FAM on the 5′ end, and the dark quenching group, Iowa Black FQ, on the 3′ end. In addition, a second dark quencher ZEN was placed between the 9th and 10th base (Figure 2a). The fluorescence emitted by 6-FAM is quenched by FRET, but it increases when DNA is degraded by Dna2. […] The inhibitory activity of the compounds was determined as a reduction in fluorescent signal compared with the dimethylsulfoxide (DMSO) only control. […] We screened ~50 000 chemical compounds from six different libraries (Supplementary Table S1) to identify chemical inhibitors of the Dna2 nuclease activity. […] The DNA2 nuclease domain is well conserved among eukaryotes, and therefore we reasoned that inhibitors of yDna2 will likely also work with the human counterpart.
Initial screen, it was performed with yDna2.[22] Then, the top candidate compounds were tested on hDNA2. Identical reaction conditions were used for assaying the nuclease activity of yDna2 and hDNA2. […] The reaction buffer was 20 mM HEPES/NaOH, pH 7.5, 60 mM KCl, 1 mM DTT, 100 μg/ml bovine serum albumin and 0.05% Triton X-100. The nuclease assay was initiated by adding MgCl2 (3 mM final concentration). T5 nuclease was assayed in the buffer (50 mM potassium acetate, pH 7.9, 20 mM Tris-acetate, 10 mM magnesium acetate and 1 mM DTT) provided by the vendor (NEB, Ipswich, MA, USA). The concentration of the fluorogenic substrate was 0.1 μM. The optimal amount of yDna2, hDNA2 and T5 nuclease was determined by utilizing the Kaleidagraph software (Reading, PA, USA) to fit the data according to Michaelis Menton Kinetics (V=V0+Vmax*x/(Km+x)). […] The Z’ value was calculated as previously described.[50] Cell proliferation was determined using 4,6-diamidino-2-phenylindole staining followed by high-throughput microscopy in a 384-well plate setup. In brief, cells were fixed with formaldehyde, washed and stained with 4,6-diamidino-2-phenylindole and the number of nuclei in each well counted by automated microscopy. The data were analyzed as described.[51]

[2] = biological target: T2, hDNA2 (Homo sapiens, UniProt P51530); assay: Fluorescence nuclease assay with hDNA2 (triply labeled ssDNA); assay type: biochemical; settings: human DNA2 10 nM; substrate 0.1 μM; Figure 3c; read-out: IC50 (human DNA2), dose-response in vitro
T2 construct: made in house
T2 sequence (P51530 1-1060): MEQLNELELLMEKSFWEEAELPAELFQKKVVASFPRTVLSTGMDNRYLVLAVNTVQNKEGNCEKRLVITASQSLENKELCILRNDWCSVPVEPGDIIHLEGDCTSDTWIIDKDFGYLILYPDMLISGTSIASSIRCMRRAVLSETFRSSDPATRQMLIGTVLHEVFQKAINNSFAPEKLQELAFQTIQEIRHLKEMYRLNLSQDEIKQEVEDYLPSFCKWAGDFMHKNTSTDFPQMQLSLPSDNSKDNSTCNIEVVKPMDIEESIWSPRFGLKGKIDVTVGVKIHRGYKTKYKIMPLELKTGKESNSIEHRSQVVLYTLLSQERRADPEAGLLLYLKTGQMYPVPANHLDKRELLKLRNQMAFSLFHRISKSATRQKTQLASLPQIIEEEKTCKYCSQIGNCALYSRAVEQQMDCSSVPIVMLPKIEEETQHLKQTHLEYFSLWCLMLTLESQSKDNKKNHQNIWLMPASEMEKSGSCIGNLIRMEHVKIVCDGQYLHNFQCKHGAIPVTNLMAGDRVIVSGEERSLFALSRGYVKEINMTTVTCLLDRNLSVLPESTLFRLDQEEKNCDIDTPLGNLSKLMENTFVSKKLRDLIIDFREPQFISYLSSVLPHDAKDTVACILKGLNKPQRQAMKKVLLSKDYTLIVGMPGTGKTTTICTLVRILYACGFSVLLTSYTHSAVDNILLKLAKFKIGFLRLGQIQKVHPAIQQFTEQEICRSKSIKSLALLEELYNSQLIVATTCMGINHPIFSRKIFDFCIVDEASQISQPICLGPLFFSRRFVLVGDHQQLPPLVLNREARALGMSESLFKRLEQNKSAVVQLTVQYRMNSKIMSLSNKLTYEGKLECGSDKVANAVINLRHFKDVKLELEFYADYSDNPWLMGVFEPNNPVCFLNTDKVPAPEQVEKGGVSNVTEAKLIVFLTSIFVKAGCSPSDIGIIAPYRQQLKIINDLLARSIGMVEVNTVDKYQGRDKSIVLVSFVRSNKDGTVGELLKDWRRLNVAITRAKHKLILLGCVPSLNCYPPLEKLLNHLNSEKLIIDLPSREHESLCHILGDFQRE
Method: Figure 3 Validation of the top two inhibitors identified from the high-throughput screen. […] (b, c) Dose-response curves for indicated compounds, cell based (U2OS cell line) (b) and in vitro (c). The IC50 value and the protein concentration used are indicated. Triple labeled substrate (0.1 μM) as in Figure 2a was used. The concentration range of inhibitors was 0.003–666.67 μM. […] The asterisks denote the radiolabel. Plotted are the average data from three independent experiments and the error bars represent 1 s.d. […]
In addition, a second dark quencher ZEN (N,N-diethyl-4-(4-nitronaphthalen-1-ylazo)-phenylamine, absorption max.=532 nm) is placed between 9th and 10th base (Figure 2a). […] The optimal amount of yDna2, hDNA2 and T5 nuclease was determined by utilizing the Kaleidagraph software (Reading, PA, USA) to fit the data according to Michaelis Menton Kinetics (V=V0+Vmax*x/(Km+x)). […] The Z’ value was calculated as previously described.[50] Cell proliferation was determined using 4,6-diamidino-2-phenylindole staining followed by high-throughput microscopy in a 384-well plate setup. In brief, cells were fixed with formaldehyde, washed and stained with 4,6-diamidino-2-phenylindole and the number of nuclei in each well counted by automated microscopy. The data were analyzed as described.[51]

T1 sequence (P38859 whole entry): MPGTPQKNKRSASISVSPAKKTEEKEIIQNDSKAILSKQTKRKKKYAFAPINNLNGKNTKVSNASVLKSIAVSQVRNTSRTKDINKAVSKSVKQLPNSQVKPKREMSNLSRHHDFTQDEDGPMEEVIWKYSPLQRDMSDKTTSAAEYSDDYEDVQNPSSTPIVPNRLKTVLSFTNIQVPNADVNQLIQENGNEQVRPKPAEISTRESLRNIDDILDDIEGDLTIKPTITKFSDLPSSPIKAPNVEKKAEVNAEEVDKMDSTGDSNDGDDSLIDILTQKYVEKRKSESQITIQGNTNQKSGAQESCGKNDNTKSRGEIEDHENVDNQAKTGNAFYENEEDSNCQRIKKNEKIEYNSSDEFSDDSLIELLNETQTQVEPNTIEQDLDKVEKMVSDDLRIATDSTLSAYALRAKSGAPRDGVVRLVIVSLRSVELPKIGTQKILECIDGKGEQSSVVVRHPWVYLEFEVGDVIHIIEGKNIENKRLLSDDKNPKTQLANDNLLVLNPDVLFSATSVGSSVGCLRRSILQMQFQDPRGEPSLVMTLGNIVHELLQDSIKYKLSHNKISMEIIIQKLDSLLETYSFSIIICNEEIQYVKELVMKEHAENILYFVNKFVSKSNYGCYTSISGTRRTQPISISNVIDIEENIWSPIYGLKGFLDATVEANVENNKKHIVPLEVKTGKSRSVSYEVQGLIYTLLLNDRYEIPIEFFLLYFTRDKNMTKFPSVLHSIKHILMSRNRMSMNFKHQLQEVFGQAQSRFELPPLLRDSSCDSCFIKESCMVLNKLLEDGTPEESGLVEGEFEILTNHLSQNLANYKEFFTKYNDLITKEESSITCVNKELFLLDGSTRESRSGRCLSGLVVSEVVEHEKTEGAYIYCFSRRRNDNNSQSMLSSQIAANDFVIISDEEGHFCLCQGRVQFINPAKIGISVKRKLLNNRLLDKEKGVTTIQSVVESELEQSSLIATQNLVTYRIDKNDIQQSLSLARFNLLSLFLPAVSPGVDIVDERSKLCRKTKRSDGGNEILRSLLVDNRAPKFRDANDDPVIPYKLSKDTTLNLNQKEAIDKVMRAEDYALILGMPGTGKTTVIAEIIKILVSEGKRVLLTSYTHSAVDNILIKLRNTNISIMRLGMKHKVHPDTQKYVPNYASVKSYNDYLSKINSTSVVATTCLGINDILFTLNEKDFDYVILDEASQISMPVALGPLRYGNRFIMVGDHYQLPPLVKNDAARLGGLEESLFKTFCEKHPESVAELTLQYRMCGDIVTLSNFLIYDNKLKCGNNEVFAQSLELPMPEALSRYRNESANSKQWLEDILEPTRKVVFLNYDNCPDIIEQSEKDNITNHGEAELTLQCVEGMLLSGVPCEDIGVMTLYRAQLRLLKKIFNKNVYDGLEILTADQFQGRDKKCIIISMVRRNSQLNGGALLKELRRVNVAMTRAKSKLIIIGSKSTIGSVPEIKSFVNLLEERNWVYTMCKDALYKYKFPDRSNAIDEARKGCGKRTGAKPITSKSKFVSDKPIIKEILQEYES

| Structure (SMILES) | IC50 [1] [nM] | IC50 [2] [nM] |
| --- | --- | --- |
| O=C1C(=O)c2cc([N+](=O)[O-])ccc2-c2ccccc21 [NSC-5195242, 2-nitrophenanthrene-9,10-dione] | 3900 | 3100 |
| NC1=C(Br)C(=O)c2ncccc2C1=O [NSC-105808, 6-amino-7-bromoquinoline-5,8-dione] | 2000 | 1490 |
